Several values for one entry are separate records, joined by “and”; a condition that tells them apart may be missing. Identical values can stand only once. Toxic doses and inconclusive results are not listed.
System: BDF1 mice, P388 leukemia ip, median survival T/C
Assay: NCI In Vivo Anticancer Drug Screen. Data for tumor model P388 Leukemia (intraperitoneal) in B6D2F1 (BDF1) mice
Settings: endpoint: median survival time, higher = longer survival
How it was run: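 Each value expresses how treatment altered survival: treated-mouse outcome over vehicle-mouse outcome, both groups bearing the transplanted tumour.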

[1] = dose: 50.0 mg/kg/injection, schedule: Q01DX009 (ip), vehicle: saline with Tween-80
[2] = dose: 100.0 mg/kg/injection, schedule: Q01DX009 (ip), vehicle: saline with Tween-80
[3] = dose: 200.0 mg/kg/injection, schedule: Q01DX009 (ip), vehicle: saline with Tween-80
[4] = dose: 100.0 mg/kg/injection, schedule: Q04DX003 (ip), vehicle: saline
[5] = dose: 200.0 mg/kg/injection, schedule: Q04DX003 (ip), vehicle: saline
[6] = dose: 400.0 mg/kg/injection, schedule: Q04DX003 (ip), vehicle: saline

Compound: CC(=O)Oc1ccc2c(c1)CCC1C2CCC2(C)C1CCC21CO1 (stereo not drawn)
- T/C [1]: 90 % of control
- T/C [2]: 97 % of control
- T/C [3]: 98 % of control

Compound: Cc1ccc2scc3c4ccccc4nc-3c2c1
- T/C (dose: 2.5 mg/kg/injection, schedule: Q01DX009 (ip), vehicle: saline): 94 % of control
- T/C (dose: 5.0 mg/kg/injection, schedule: Q01DX009 (ip), vehicle: saline): 107 % of control
- T/C (dose: 10.0 mg/kg/injection, schedule: Q01DX009 (ip), vehicle: saline): 114 % of control
- T/C (dose: 12.5 mg/kg/injection, schedule: Q01DX009 (ip), vehicle: saline): 113 % of control and 124 % of control
- T/C (dose: 20.0 mg/kg/injection, schedule: Q01DX009 (ip), vehicle: saline): 94 % of control
- T/C (dose: 25.0 mg/kg/injection, schedule: Q01DX009 (ip), vehicle: saline): 113 % of control and 124 % of control
- T/C (dose: 56.25 mg/kg/injection, schedule: Q04DX003 (ip), vehicle: saline): 104 % of control
- T/C (dose: 75.0 mg/kg/injection, schedule: Q01DX009 (ip), vehicle: saline): 100 % of control and 104 % of control
- T/C (dose: 112.5 mg/kg/injection, schedule: Q01DX009 (ip), vehicle: saline): 96 % of control
- T/C (dose: 112.5 mg/kg/injection, schedule: Q04DX003 (ip), vehicle: saline): 113 % of control

Compound: O=C1NC(=O)C(c2cccs2)(c2cccs2)N1
- T/C (dose: 25.0 mg/kg/injection, schedule: Q01DX009 (ip), vehicle: water): 115 % of control
- T/C (dose: 100.0 mg/kg/injection, schedule: Q01DX009 (ip), vehicle: water): 111 % of control
- T/C (dose: 100.0 mg/kg/injection, schedule: Q04DX003 (ip), vehicle: water): 99 % of control
- T/C (dose: 200.0 mg/kg/injection, schedule: Q04DX003 (ip), vehicle: water): 98 % of control

Compound: CC12CCC(C=C1N1CCCCC1)C(C)(C)O2 (stereo not drawn)
- T/C (dose: 50.0 mg/kg/injection, schedule: Q01DX005 (ip), vehicle: saline with Tween-80): 101 % of control
- T/C (dose: 100.0 mg/kg/injection, schedule: Q01DX005 (ip), vehicle: saline with Tween-80): 101 % of control
- T/C (dose: 200.0 mg/kg/injection, schedule: Q01DX005 (ip), vehicle: saline with Tween-80): 106 % of control

Compound: Cc1c(C(=O)O)nc(/C=C/C(Cl)(Cl)Cl)[nH]c1=O
- T/C (dose: 25.0 mg/kg/injection, schedule: Q04DX003 (ip), vehicle: Klucel (hydroxypropylcellulose) (HPC)): 102 % of control
- T/C (dose: 50.0 mg/kg/injection, schedule: Q04DX003 (ip), vehicle: Klucel (hydroxypropylcellulose) (HPC)): 100 % of control
- T/C (dose: 100.0 mg/kg/injection, schedule: Q04DX003 (ip), vehicle: Klucel (hydroxypropylcellulose) (HPC)): 115 % of control
- T/C (dose: 200.0 mg/kg/injection, schedule: Q04DX003 (ip), vehicle: Klucel (hydroxypropylcellulose) (HPC)): 103 % of control
- T/C (dose: 400.0 mg/kg/injection, schedule: Q04DX003 (ip), vehicle: Klucel (hydroxypropylcellulose) (HPC)): 116 % of control

Compound: CCCCOCCN1CCN(CCCN2c3ccccc3Sc3ccc(C(F)(F)F)cc32)CC1
- T/C (dose: 12.5 mg/kg/injection, schedule: Q04DX003 (ip), vehicle: saline): 111 % of control
- T/C (dose: 25.0 mg/kg/injection, schedule: Q04DX003 (ip), vehicle: saline): 112 % of control
- T/C (dose: 50.0 mg/kg/injection, schedule: Q04DX003 (ip), vehicle: saline): 153 % of control

Compound: COc1cc2ccccc2c(-c2c(O)c(OC)cc3ccccc23)c1O
- T/C [1]: 91 % of control
- T/C [2]: 86 % of control
- T/C [3]: 88 % of control

Compound: CSC(=O)OCC1=CC2OC(=O)C3=COC(OC4OC(CO)C(O)C(O)C4O)C1C32 (stereo not drawn)
- T/C (dose: 2.0 mg/kg/injection, schedule: Q01DX009 (ip), vehicle: saline with Tween-80): 101 % of control
- T/C (dose: 4.0 mg/kg/injection, schedule: Q01DX009 (ip), vehicle: saline with Tween-80): 101 % of control
- T/C (dose: 16.0 mg/kg/injection, schedule: Q01DX009 (ip), vehicle: saline with Tween-80): 111 % of control

Compound: ClC1(Cl)OC(Cl)(Cl)C(Cl)(Cl)OC1(Cl)Cl
- T/C (dose: 50.0 mg/kg/injection, schedule: Q01DX009 (ip), vehicle: Klucel (hydroxypropylcellulose) (HPC)): 95 % of control
- T/C (dose: 100.0 mg/kg/injection, schedule: Q01DX009 (ip), vehicle: Klucel (hydroxypropylcellulose) (HPC)): 95 % of control
- T/C (dose: 200.0 mg/kg/injection, schedule: Q01DX009 (ip), vehicle: Klucel (hydroxypropylcellulose) (HPC)): 109 % of control

Compound: CCN(CC)CCCC(C)NCCCN (stereo not drawn)
- T/C (dose: 50.0 mg/kg/injection, schedule: Q01DX009 (ip), vehicle: saline): 96 % of control
- T/C (dose: 100.0 mg/kg/injection, schedule: Q01DX009 (ip), vehicle: saline): 96 % of control
- T/C (dose: 200.0 mg/kg/injection, schedule: Q01DX009 (ip), vehicle: saline): 94 % of control

Compound: CCOC(=O)C(OCc1ccccc1)C(=O)OCC
- T/C [2]: 87 % of control
- T/C [4]: 115 % of control
- T/C [3]: 104 % of control
- T/C [5]: 90 % of control
- T/C (dose: 400.0 mg/kg/injection, schedule: Q01DX009 (ip), vehicle: saline with Tween-80): 108 % of control
- T/C [6]: 90 % of control

Compound: CC1=CC(=O)NC1=O
- T/C (dose: 4.3 mg/kg/injection, schedule: Q01DX009 (ip), vehicle: saline): 114 % of control
- T/C (dose: 6.4 mg/kg/injection, schedule: Q01DX009 (ip), vehicle: saline): 102 % of control
- T/C (dose: 9.6 mg/kg/injection, schedule: Q01DX009 (ip), vehicle: saline): 117 % of control
- T/C (dose: 14.0 mg/kg/injection, schedule: Q01DX009 (ip), vehicle: saline): 123 % of control

Compound: C=C1C(=O)OC2CC3(C)OC3C3OC3C3=CC(OC3=O)C12 (stereo not drawn)
- T/C (dose: 1.25 mg/kg/injection, schedule: Q01DX010 (ip), vehicle: saline): 115 % of control
- T/C (dose: 2.5 mg/kg/injection, schedule: Q01DX010 (ip), vehicle: saline): 115 % of control
- T/C (dose: 5.0 mg/kg/injection, schedule: Q01DX010 (ip), vehicle: saline): 115 % of control
- T/C (dose: 10.0 mg/kg/injection, schedule: Q01DX010 (ip), vehicle: saline): 100 % of control

Compound: [NH-]C(CO)C(=O)O.[NH-]C(CO)C(=O)O.[Pt+2] (stereo not drawn)
- T/C (dose: 12.5 mg/kg/injection, schedule: Q01DX009 (ip), vehicle: distilled water + Tween-80): 115 % of control
- T/C (dose: 25.0 mg/kg/injection, schedule: Q01DX009 (ip), vehicle: distilled water + Tween-80): 117 % of control
- T/C (dose: 50.0 mg/kg/injection, schedule: Q01DX009 (ip), vehicle: distilled water + Tween-80): 115 % of control
- T/C (dose: 100.0 mg/kg/injection, schedule: Q01DX009 (ip), vehicle: distilled water + Tween-80): 115 % of control

Compound: CC[N+](CC)(CC)CCCCCC[N+](CC)(CC)CC
- T/C (dose: 1.0 mg/kg/injection, schedule: Q01DX009 (ip), vehicle: water): 100 % of control
- T/C (dose: 2.0 mg/kg/injection, schedule: Q01DX009 (ip), vehicle: water): 104 % of control
- T/C (dose: 2.0 mg/kg/injection, schedule: Q04DX003 (ip), vehicle: water): 102 % of control and 103 % of control
- T/C (dose: 4.0 mg/kg/injection, schedule: Q01DX009 (ip), vehicle: water): 97 % of control
- T/C (dose: 4.0 mg/kg/injection, schedule: Q04DX003 (ip), vehicle: water): 116 % of control
- T/C (dose: 6.0 mg/kg/injection, schedule: Q04DX003 (ip), vehicle: water): 102 % of control
- T/C (dose: 6.25 mg/kg/injection, schedule: Q04DX003 (ip), vehicle: water): 123 % of control
- T/C (dose: 8.0 mg/kg/injection, schedule: Q01DX009 (ip), vehicle: water): 104 % of control
- T/C (dose: 8.0 mg/kg/injection, schedule: Q04DX003 (ip), vehicle: water): 100 % of control

Compound: CC1(C)C2C=CC1C(CO)(CO)C2 (stereo not drawn)
- T/C (dose: 100.0 mg/kg/injection, schedule: Q01DX001 (ip), vehicle: saline): 100 % of control
- T/C [4]: 100 % of control
- T/C (dose: 200.0 mg/kg/injection, schedule: Q01DX001 (ip), vehicle: saline): 104 % of control
- T/C [5]: 91 % of control
- T/C (dose: 400.0 mg/kg/injection, schedule: Q01DX001 (ip), vehicle: saline): 108 % of control
- T/C [6]: 100 % of control

From PubChem BioAssay AID328 (DTP/NCI, 2004)
